In patent US8304455B2, “Compositions and methods of their use for improving the condition and appearance of skin” (Avon Products, Inc, priority 2004, dated 2012):
Where “and” joins values, the source holds several entries; their conditions need not be identical. Identical values can stand only once.

Assays:
Assay type in all cases: cell-based
Settings in all cases: normal human epidermal keratinocytes; transcript numbers normalized to vehicle control; replicate values
[1] = test system: Collagen 4; assay: PCR gene expression, Collagen 4
Experimental: (§1) A vial of cryopreserved normal human epidermal keratinocytes (Adult or Neonatal) was removed from liquid N2 and placed in a 37° C. water bath for 1-2 minutes, or until completely thawed. The vial was then removed from the water bath and the excess water was wiped off. The vial was placed into a cell culture hood for sterility. The vial was wiped with 70% ethanol to air dry for 30 seconds. While in the cell culture hood, the cells were removed from the vial and placed into a 50 ml tube. The appropriate growth media (5 ml) was added drop wise while agitating the tube, allowing uniform mixture of the cells and medium while limiting cell death due to osmotic changes caused by freezing media, Medium (25 ml) was added to the 50 ml tube to bring the volume up to 30 ml. Into two 75 cm2 flasks, medium/cell solution (15 ml) was added, or to six 25 cm2 flasks, medium (5 ml) was added. Flasks were recapped and placed horizontally in a 37° C. humidified incubator with 5% CO2 for 24 hours. After 24 hours, the old medium was aspirated and fresh room temperature growth medium (15 ml) was added onto the cells. Prior to adding the fresh growth medium, it was brought up to room temperature using a room temperature water bath without the cover. The flasks containing cells with fresh media were placed back into the 37° C. incubator. Flasks containing the old media was replaced with fresh media repeatedly until the desired confluence (75%) was reached.
(§2) When the cells reached the desired confluency, they were removed from the incubator and the media was aspirated off using a vacuum trap. Hank's Buffered Saline Solution (HBSS; 10 ml of 1X; Mediatech, Inc.; Herndon, Va.) was placed into the flask and the entire surface area rinsed. The HBSS was then aspirated. Trypsin (1X; Mediatech, Inc.) was added in a 5 ml volume. The flasks were placed back into the incubator for 8 minutes. The flasks were taken from the incubator and 15 ml of Trypsin Neutralizing Solution (1X; Cascade Biologics; Portland, Oreg.) was added to each flask to neutralize the trypsin. […]

[2] = test system: Collagen 7; assay: PCR gene expression, Collagen 7
Experimental: as §1, §2

[3] = test system: Beta-catenin; assay: PCR gene expression, Beta-catenin
Experimental: as §1, §2

[4] = test system: Hyaluronic acid synthase; assay: PCR gene expression, Hyaluronic acid synthase; design: key: (—): Not statistically significant
Experimental: as §1, §2

[5] = test system: Estrogen Receptor alpha; assay: PCR gene expression, Estrogen Receptor alpha
Experimental: as §1, §2

[6] = test system: Frizzled 10; assay: PCR gene expression, Frizzled 10
Experimental: as §1, §2

Structure (SMILES) | Collagen 4 Transcript # [1] | Collagen 7 Transcript # [2] | Beta-Catenin Transcript # [3] | Hyaluronic acid synthase Transcript # [4] | Estrogen Receptor alpha Transcript # [5] | Frizzled 10 Transcript # [6]
CSC[C@H](N)C(=O)O [S-Methyl-L-Cysteine] | 9.845 and 10.83 and 9.353 | 14.83 and 16.55 (2×) | 8.657 and 10.39 and 9.955 | — | 6.087 and 5.073 | 18.65 and 16.26 and 18.41
N[C@@H](CSc1ccccc1)C(=O)O [S-Phenyl-L-Cysteine] | 7.416 and 8.343 and 8.807 | 35.46 and 34.38 and 30.09 | 14.67 and 15.49 and 11.41 | 3.637 (2×) and 3.423 | 8.12 and 10.99 and 8.598 | 34.68 and 26.67 and 30.62
CCNC(=O)CC[C@H](N)C(=O)O [L-Theanine, L-theanine] | 10.79 and 9.561 and 10.49 | 12.87 and 10.72 and 11.44 | 10.31 and 8.678 (2×) | 10.53 and 7.971 and 8.113 | 13.03 and 12.39 and 7.627 | 17.68 and 16.48 and 17.08
